Reference: ChEMBL document CHEMBL5154801, “Virtual screening and crystallographic studies reveal an unexpected γ-lactone derivative active against MptpB as a potential antitubercular agent” (Eur J Med Chem, 2022)

Tests used:
[1] = molecular target: T1, Phosphotyrosine-protein phosphatase PTPB (Mycobacterium tuberculosis, UniProt P96830); assay: Inhibition of Mycobacterium tuberculosis PTPB expressed in Escherichia coli BL21 (DE3) assessed as residual activity
T1 sequence (P96830 whole entry): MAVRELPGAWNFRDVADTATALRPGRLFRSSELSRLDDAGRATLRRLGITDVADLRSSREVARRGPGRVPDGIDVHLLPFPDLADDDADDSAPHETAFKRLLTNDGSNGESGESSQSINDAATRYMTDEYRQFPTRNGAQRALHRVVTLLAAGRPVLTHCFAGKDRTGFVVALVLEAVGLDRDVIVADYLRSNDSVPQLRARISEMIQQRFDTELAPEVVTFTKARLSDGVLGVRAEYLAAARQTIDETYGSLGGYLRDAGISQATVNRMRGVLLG

[2] = molecular target: T2, Phosphotyrosine-protein phosphatase PTPB (Mycobacterium tuberculosis) (UniProt P96830); assay: Inhibition of Mycobacterium tuberculosis PTPB expressed in Escherichia coli BL21 (DE3) assessed as residual activity at 100 uM using p-nitrophenyl phosphate as substrate relative to control
T2 sequence (whole entry): T1 sequence (P96830 whole entry)

[3] = molecular target: T1, Phosphotyrosine-protein phosphatase PTPB; assay: Inhibition of Mycobacterium tuberculosis PTPB expressed in Escherichia coli BL21 (DE3) in presence of DTT by PAINS assay
[4] = molecular target: T1, Phosphotyrosine-protein phosphatase PTPB; assay: Inhibition of Mycobacterium tuberculosis PTPB expressed in Escherichia coli BL21 (DE3) in presence of BSA by PAINS assay
[5] = Cytotoxicity against human MRC5 cells assessed as reduction in cell viability at 200 to 0.02 uM measured after 96 hrs; assay type: toxicity, cell-based
[6] = Cytotoxicity against human WI-38 cells assessed as reduction in cell viability at 200 to 0.02 uM measured after 96 hrs; assay type: toxicity, cell-based

## O=C1OC(c2ccccc2C(F)(F)F)C(c2ccc3ccccc3n2)=C1O (stereo in doubt; 1-E2) [listing 1 of 2 here]
[1]
  IC50: 72.2 µM

## O=C1OC(c2ccccc2C(F)(F)F)C(c2ccc3ccccc3n2)=C1O (stereo in doubt; 1-E1) [listing 1 of 2 here]
[2]
  Activity: 14.2%

## O=C1OC(c2ccccc2C(F)(F)F)C(c2ccc3ccccc3n2)=C1O (stereo in doubt; 1-E1) [listing 2 of 2 here]
[1]
  IC50: 31.1 µM

## CCOC(=O)c1c(NC(=O)C(=O)O)sc2c1CCCC2
[2]
  Activity: 69.5%

## COc1cccc(C2CC(O)=Nc3c(C(=O)O)cn(-c4cccc(F)c4)c32)c1OC (stereo not drawn)
[2]
  Activity: 101%

## O=C1OC(c2ccccc2C(F)(F)F)C(c2ccc3ccccc3n2)=C1O (stereo in doubt; 1-E2) [listing 2 of 2 here]
[2]
  Activity: 27.7%

## Cc1onc(C(=O)O)c1-c1cccc(-c2cc(Cl)c(O)c(Cl)c2)c1
[2]
  Activity: 10.9%
[1]
  IC50: 25.8 µM

## CC1(C)Cc2c(sc(NC(=O)C(=O)O)c2C(=O)O)CO1
[2]
  Activity: 104%

## O=C(O)C(=O)/C(=C/c1ccccc1C(F)(F)F)c1ccc2ccccc2n1
[2]
  Activity: 24.3%
[1]
  IC50: 48.1 µM
[3]
  IC50: 47 µM
[4]
  IC50: 51.6 µM
[5]
  IC50 at 96 h: > 200 µM
[6]
  IC50 at 96 h: > 200 µM

## Cc1nc(-c2cccnc2-n2cnc(C(=O)O)c2)no1
[2]
  Activity: 83.2%

## CC(C)c1nnc(NC(=O)C(=O)O)s1
[2]
  Activity: 87.2%

## O=C(O)c1cc(-c2cc(Cl)ccc2Cl)[nH]n1
[2]
  Activity: 109%
